Assay results from patent publication US4914189A, “Synthetic GHRH analogs” (The Adminstrators of the Tulane Educational Fund, priority 1987, dated 1990).
Where “and” joins values, the source holds several entries; their conditions need not be identical. Equal values may be shown once.

Key:
[1] = tested on: release of GH; test: In vivo release of GH in male testosterone primed rats, 4-point assay method; set-up: species or system rat; conditions: i.v., individual values
Protocol: In vivo effect of synthetic GHRH analogs on the release of
GH in male testosterone primed rats. Results were
calculated by the 4-point assay method.
Doses injected are in μg/100 g. b.w., i.v.

[2] = tested on: superfused pituitary cell system; test: In vitro GH release, superfused pituitary cell system; type: cell-based, rat
Protocol: The compounds of the present invention were tested both in vitro in rat cell culture and in vivo in rats to determine GHRH activity. The protocols are as follows:
Twenty-four adult male or female Sprague-Dawley strain rats were decapitated for each experiment. After posterior lobes were removed, the anterior pituitaries were cut into small pieces and incubated in a Dubnoff incubator for 45 minutes at 37° C. in 10 ml. of oxygenated Medium 199 (GIBCO) containing 0.5% collagenase (Sigma Type 1), 0.25% bovine serum albumin (BSA) (Sigma RIA grade), and 5 μg./ml. Gentamicin Sulphate (Sigma). After this incubation, there were no apparent changes in the appearance of the tissue. However, the fragments could be easily dipsersed into single cells by repeated suction and expulsion from a Gilson Pipetman. After 30 to 60 Pipetman operations, the tissue fell apart; a second collagenase incubation was not usually necessary. The cell suspension was centrifuged at room temperature for 10 minutes at […]. The cell pellet was then resuspended in 1.0 ml. of medium. A small aliquot was diluted for counting the cells, and the rest or one suspension was divided into 2 equal volumes. Each volume (containing about 5× 10^6 cells, usually between 3.5 and 7.0×10^6) was mixed with 0.5 ml. Sephadex G-15 which had been equilibrated with previously oxygenated medium. The mixture of pituitary cells and Sephadex was transferred into 2 chambers of the superfusion apparatus and perfused with the medium. […]
ACTH radioimmunoassays were performed on 100 μl aliquots of undiluted superfusion medium essentially as described elsewhere (14); however, the separation of bound and free ACTH was accomplished by a polyethylene glycol facilitated second antibody method. Rat GH was measured in aliquots of undiluted or diluted superfusates to determine either basal or stimulated secretion. […]

[3] = tested on: release of pituitary GH; test: In vivo release of pituitary GH after one single i.v. injection in female rats; set-up: species or system rat; conditions: for Relative Potency (based on the effect of hpGHRH at the actual time) / Responses in plasma GH in ng GH/ml: 1.0 ug/(female) rat i.v.; for Absolute Potency (based on the average value of the four samples at -1 min.): average GH level at -1 min. 63.5 ng GH/ml plasma
Protocol: Adult female rats were used and were anesthetized with pentobarbital (6 mg/100 g, b.w.), injected i/p. 20 minutes after the injection of pentobarbital; blood samples were taken from the jugular vein (pretreated level) and immediately thereafter hpGH-RH^1-29 (as a control) or GH-RH^1-29 analogs were injected i.v. Blood samples were taken from the jugular vein 5, 15, 60 minutes after the injection. The blood samples were centrifuged, plasma was removed and the GH level was measured by RIA.
In vivo Effects of synthetic GHRH analogs on the release
of pituitary GH following one single i.v. injection of 1.0

With “GH-RH^1-29: standard/control: fragment of the first 29 residues of human growth hormone releasing factor, amide” the “plasma Gh level” value ([1]; 5 minutes after injection, dose 0.05 μg/100 g. b.w.) was 160 ng·mL and 540 ng·mL and 208 ng·mL and 191 ng·mL and 450 ng·mL and 286 ng·mL and 397 ng·mL, the “plasma Gh level” value ([1]; 5 minutes after injection, dose 0.2 μg/100 g. b.w.) was 370 ng·mL and 620 ng·mL and 540 ng·mL and 610 ng·mL and 870 ng·mL and 410 ng·mL and 560 ng·mL and the “plasma Gh level” value ([1]; 15 minutes after injection, dose 0.05 μg/100 g. b.w.) was 65 ng·mL and 241 ng·mL and 97 ng·mL and 70 ng·mL and 161 ng·mL and 145 ng·mL and 149 ng·mL. For the same substance, the “plasma Gh level” value ([1]; 15 minutes after injection, dose 0.2 μg/100 g. b.w.) was 112 ng·mL and 280 ng·mL and 199 ng·mL and 261 ng·mL and 510 ng·mL and 161 ng·mL and 207 ng·mL, the “Released GH Level Average” value ([2]; peptides administered for 3 minutes at 10M^-9 Concentration) was 40.00 ng/mL and the “Released GH Level” value ([2]; peptides administered for 3 minutes at 10M^-9 Concentration, individual values) was 62.50 ng/mL and 42.50 ng/mL and 20.50 ng/mL and 34.50 ng/mL. For the same substance, the Potency % ([2]; relative to GH-RH^1-29 standard, 3 minutes at 10M^-9 Concentration) was 100%, the “Relative Potency (based on the effect of hpGHRH at the actual time)” value (shortened to “Relative Potency”) ([3]; time +5 min) was 100% and the “Responses in plasma GH in ng GH/ml” value ([3]; time +5 min) was 248 ng/mL. For the same substance, the “Absolute Potency (based on the average value of the four samples at -1 min.)” value (“Absolute Potency” below) ([3]; time +5 min) was 390%, the “Relative Potency” value ([3]; time +15 min) was 100% and the “Responses in plasma GH in ng GH/ml” value ([3]; time +15 min) was 137 ng/mL. The “Absolute Potency” value ([3]; time +15 min) was 215%, the “Relative Potency” value ([3]; time +60 min) was 100% and the “Responses in plasma GH in ng GH/ml” value ([3]; time +60 min) was 29 ng/mL. The “Absolute Potency” value ([3]; time +60 min) was 45%, the “Relative Potency” value ([3]; time -1 min (pretreated level)) was 100% and the “Responses in plasma GH in ng GH/ml” value ([3]; time -1 min (pretreated level)) was 66 ng/mL. The “Absolute Potency” value ([3]; time -1 min (pretreated level)) was 103%.
